In patent US20240262830A1, “IRE1A MODULATORS AND USES THEREOF” (Nimbus Iaso, Inc., priority 2020, published 2024):

Tests used:
[1] = target: T1, truncated human IRE1a WT protein, containing the catalytic part (aa 547-977) (Homo sapiens, UniProt O75460); assay: IRE1a biochemical enzyme splice assay; conditions: 20 nM protein, 500 nM fluorescently quenched IRE1a substrate, 40 min at room temperature; read-out: EnzymeSplice_hIRE1a_IC50 (IC50)
T1 construct: containing the catalytic part (aa 547-977); made in house
T1 sequence (O75460 547-977): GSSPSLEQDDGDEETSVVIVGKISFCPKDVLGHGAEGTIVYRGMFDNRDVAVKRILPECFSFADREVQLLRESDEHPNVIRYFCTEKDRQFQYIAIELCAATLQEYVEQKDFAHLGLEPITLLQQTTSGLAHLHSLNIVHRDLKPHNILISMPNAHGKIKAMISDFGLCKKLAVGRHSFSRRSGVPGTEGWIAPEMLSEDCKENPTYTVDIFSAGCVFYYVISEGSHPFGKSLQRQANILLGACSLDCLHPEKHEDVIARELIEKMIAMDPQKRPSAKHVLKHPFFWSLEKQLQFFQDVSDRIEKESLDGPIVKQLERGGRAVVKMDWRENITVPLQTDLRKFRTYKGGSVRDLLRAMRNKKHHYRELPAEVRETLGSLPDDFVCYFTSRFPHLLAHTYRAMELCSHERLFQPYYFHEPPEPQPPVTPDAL
Experimental: A truncated human IRE1a WT protein, containing the catalytic part (aa 547-977) was expressed in baculovirus. The purified protein (20 nM) was incubated with a fluorescently quenched IRE1a substrate (500 nM; 5′/6-FAM-CAGUCCGCAGCACUG-BHQ-1/3′) and a titration of inhibitor, starting at 10 μM (final DMSO concentration=1%) for 40 min at room temperature in assay buffer. Reactions were carried out in a final volume of […] in a 384 well assay plate. The reaction was stopped, and the plate was spun for 1 minute at 1000 rpm. The fluorescence intensity of the IRE1a-substrate was measured using an fluorescent plate reader (Ex 485 nm/Em 535 nm, Perkin Elmer Envision).

hIRE1a = assay: XBP1-Luc cell assay; format: cell-based; conditions: Homo sapiens; HEK293-pLVX-XBP1.fluc-IRES-Puro cells, 600 nM Thapsigargin 1 hour, then inhibitor 6 hours; read-out: fLuc_XBP1_hIRE1a_HEK293_IC50 (IC50)
Experimental: HEK293-pLVX-XBP1.fluc-IRES-Puro cells (ChemPartner) were collected into DMEM (Invitrogen, 11995-065) with 10% FBS (BI, 04-002-1A). Cells were seeded at 1.5E4 cells/well in BioCoat Poly-D-Lysine Black/Clear flat bottom 96 well plate (Corning, 356640) and incubated overnight at 37° C. and 5% CO2. Cells were treated with 600 nM Thapsigargin (Sigma, T9033) for 1 hour at 37° C. and 5% CO2 prior to inhibitor addition. A titration of inhibitor, starting at 30 μM was added to wells for an additional 6 hours at 37° C. and 5% CO2. 100 μl of Steady-Glo Luciferase assay reagent (Promega, E2550) was added to plate and the plate was shaken for 2 minutes. Signal was read using EnSpire (Perkin Elmer).

| Structure (SMILES) | IC50 [1] | IC50 (hIRE1a) |
| --- | --- | --- |
| CCc1cc(-c2ccc3c(NS(=O)(=O)c4ccccc4Cl)ncnn23)cc2cnc(N[C@H]3CCNC3)nc12 [Compound I-11, (S)-2-chloro-N-(7-(8-ethyl-2-(pyrrolidin-3-ylamino)quinazolin-6-yl)pyrrolo[2,1-f][1,2,4]triazin-4-yl)benzenesulfonamide] | < 0.1 µM | 1 to 10 µM |
| CCc1cc(-c2ccc3c(NS(=O)(=O)c4ccccc4Cl)ncnn23)cc2cnc(N[C@H]3CCCC[C@@H]3O)nc12 [Compound I-4, 2-chloro-N-(7-(8-ethyl-2-(((1S,2S)-2-hydroxycyclohexyl)amino)quinazolin-6-yl)pyrrolo[2,1-f][1,2,4]triazin-4-yl)benzenesulfonamide] | 0.1 to 1 µM | > 10 µM |
| CCc1cc(-c2ccc3c(NS(=O)(=O)Cc4ccccc4)ncnn23)cc2cnc(N[C@H]3CCCNC3)nc12 [Compound I-7, (S)—N-(7-(8-ethyl-2-(piperidin-3-ylamino)quinazolin-6-yl)pyrrolo[2,1-f][1,2,4]triazin-4-yl)-1-phenylmethanesulfonamide] | < 0.1 µM | < 1 µM |
| CCc1cc(-c2ccc3c(NS(=O)(=O)c4ccccc4Cl)ncnn23)cc2cnc(N[C@H]3CCCCNC3)nc12 [Compound I-12, (S)—N-(7-(2-(azepan-3-ylamino)-8-ethylquinazolin-6-yl)pyrrolo[2,1-f][1,2,4]triazin-4-yl)-2-chlorobenzenesulfonamide] | < 0.1 µM | < 1 µM |
| CCc1cc(-c2ccc3c(NS(=O)(=O)c4ccccc4F)ncnn23)cc2cnc(N[C@H]3CCCNC3)nc12 [Compound I-1, (S)—N-(7-(8-ethyl-2-(piperidin-3-ylamino)quinazolin-6-yl)pyrrolo[2,1-f][1,2,4]triazin-4-yl)-2-fluorobenzenesulfonamide] | < 0.1 µM | < 1 µM |
| CCc1cc(-c2ccc3c(NS(=O)(=O)c4ccccc4Cl)ncnn23)cc2cnc(NC[C@@H]3CCCNC3)nc12 [Compound I-17, (R)-2-chloro-N-(7-(8-ethyl-2-((piperidin-3-ylmethyl)amino)quinazolin-6-yl)pyrrolo[2,1-f][1,2,4]triazin-4-yl)benzenesulfonamide] | 0.1 to 1 µM | > 10 µM |
| CCc1cc(-c2ccc3c(NS(=O)(=O)c4ccccc4Cl)ncnn23)cc2cnc(NC[C@@H]3CCCCN3)nc12 [Compound I-18, (S)-2-chloro-N-(7-(8-ethyl-2-((piperidin-2-ylmethyl)amino)quinazolin-6-yl)pyrrolo[2,1-f][1,2,4]triazin-4-yl)benzenesulfonamide] | 0.1 to 1 µM | > 10 µM |
| CCc1cc(-c2ccc3c(NS(=O)(=O)c4ccccc4Cl)ncnn23)cc2cnc(N[C@H]3CCCNC3)nc12 [Compound I-22, (S)-2-chloro-N-(7-(8-ethyl-2-(piperidin-3-ylamino)quinazolin-6-yl)pyrrolo[2,1-f][1,2,4]triazin-4-yl)benzenesulfonamide] | < 0.1 µM | < 1 µM |
| CCc1cc(-c2ccc3c(NS(=O)(=O)c4ccccc4Cl)ncnn23)cc2cnc(NC[C@H]3CCCNC3)nc12 [Compound I-8, (S)-2-chloro-N-(7-(8-ethyl-2-((piperidin-3-ylmethyl)amino)quinazolin-6-yl)pyrrolo[2,1-f][1,2,4]triazin-4-yl)benzenesulfonamide] | < 0.1 µM | 1 to 10 µM |
| CCc1cc(-c2ccc3c(NS(=O)(=O)c4ccccc4Cl)ncnn23)cc2cnc(N[C@H]3CCCC[C@H]3O)nc12 [Compound I-10, 2-chloro-N-(7-(8-ethyl-2-(((1S,2R)-2-hydroxycyclohexyl)amino)quinazolin-6-yl)pyrrolo[2,1-f][1,2,4]triazin-4-yl)benzenesulfonamide] | > 1 µM | – |
| CCc1cc(-c2ccc3c(NS(=O)(=O)c4ccccc4Cl)ncnn23)cc2cnc(N[C@H]3CC[C@H](O)C3)nc12 [Compound I-14, 2-chloro-N-(7-(8-ethyl-2-(((1S,3S)-3-hydroxycyclopentyl)amino)quinazolin-6-yl)pyrrolo[2,1-f][1,2,4]triazin-4-yl)benzenesulfonamide] | < 0.1 µM | > 10 µM |
| CCc1cc(-c2ccc3c(NS(=O)(=O)C4CCCC4)ncnn23)cc2cnc(N[C@H]3CCCNC3)nc12 [Compound I-15, (S)—N-(7-(8-ethyl-2-(piperidin-3-ylamino)quinazolin-6-yl)pyrrolo[2,1-f][1,2,4]triazin-4-yl)cyclopentanesulfonamide] | < 0.1 µM | < 1 µM |
| CCc1cc(-c2ccc3c(NS(=O)(=O)c4ccc(OC(F)F)cc4)ncnn23)cc2cnc(N[C@H]3CCCNC3)nc12 [Compound I-5, (S)-4-(difluoromethoxy)-N-(7-(8-ethyl-2-(piperidin-3-ylamino)quinazolin-6-yl)pyrrolo[2,1-f][1,2,4]triazin-4-yl)benzenesulfonamide] | < 0.1 µM | 1 to 10 µM |
| CCc1cc(-c2ccc3c(NS(=O)(=O)c4ccccc4Cl)ncnn23)cc2cnc(N[C@H]3CCCC[C@@H]3N)nc12 [Compound I-13, N-(7-(2-(((1S,2S)-2-aminocyclohexyl)amino)-8-ethylquinazolin-6-yl)pyrrolo[2,1-f][1,2,4]triazin-4-yl)-2-chlorobenzenesulfonamide] | > 1 µM | – |

More lines, now with the values ahead:

| IC50 [1] | IC50 (hIRE1a) | Structure (SMILES) |
| --- | --- | --- |
| 0.1 to 1 µM | < 1 µM | CCc1cc(-c2ccc3c(NC(=O)NC4CC4)ncnn23)cc2cnc(NC3CCCNC3)nc12 (stereo in doubt) [Compound I-24, 3-cyclopropyl-1-(7-{8-ethyl-2-[(3R)-piperidin-3-ylamino]quinazolin-6-yl}pyrrolo[2,1-f][1,2,4]triazin-4-yl)urea] |
| < 0.1 µM | < 1 µM | CCc1cc(-c2ccc3c(NS(=O)(=O)Cc4ccccc4Cl)ncnn23)cc2cnc(N[C@H]3CCCNC3)nc12 [Compound I-25, (S)-1-(2-chlorophenyl)-N-(7-(8-ethyl-2-(piperidin-3-ylamino)quinazolin-6-yl)pyrrolo[2,1-f][1,2,4]triazin-4-yl)methanesulfonamide] |
| < 0.1 µM | < 1 µM | CCc1cc(-c2ccc3c(NS(=O)(=O)c4ccccc4Cl)ncnn23)cc2cnc(N[C@H]3CC[C@H](N)CC3)nc12 [Compound I-32] |
| < 0.1 µM | 1 to 10 µM | CCc1cc(-c2ccc3c(NS(=O)(=O)c4ccccc4)ncnn23)cc2cnc(N[C@H]3CCCNC3)nc12 [Compound I-26, (S)—N-(7-(8-ethyl-2-(piperidin-3-ylamino)quinazolin-6-yl)pyrrolo[2,1-f][1,2,4]triazin-4-yl)benzenesulfonamide] |
| < 0.1 µM | < 1 µM | CCc1cc(-c2ccc3c(NS(=O)(=O)N4CCCC4)ncnn23)cc2cnc(N[C@H]3CCCNC3)nc12 [Compound I-30, Pyrrolidine-1-sulfonic acid {7-[8-ethyl-2-(piperidin-3-ylamino)-quinazolin-6-yl]-pyrrolo[2,1-f][1,2,4]triazin-4-yl}-amide] |
| 0.1 to 1 µM | 1 to 10 µM | CCc1cc(-c2ccc3c(NS(=O)(=O)c4ccc(OC(F)(F)F)cc4)ncnn23)cc2cnc(N[C@H]3CCCNC3)nc12 [Compound I-27, (S)—N-(7-(8-ethyl-2-(piperidin-3-ylamino)quinazolin-6-yl)pyrrolo[2,1-f][1,2,4]triazin-4-yl)-4-(trifluoromethoxy)benzenesulfonamide] |
| 0.1 to 1 µM | > 10 µM | CCc1cc(-c2ccc3c(NS(=O)(=O)c4ccccc4Cl)ncnn23)cc2cnc(NC3CC4(COC4)C3)nc12 [Compound I-28, N-(7-(2-((2-oxaspiro[3.3]heptan-6-yl)amino)-8-ethylquinazolin-6-yl)pyrrolo[2,1-f][1,2,4]triazin-4-yl)-2-chlorobenzenesulfonamide] |
| < 0.1 µM | 1 to 10 µM | CCc1cc(-c2ccc3c(NS(=O)(=O)c4ccccc4Cl)ncnn23)cc2cnc(N[C@H]3CC[C@H](O)CC3)nc12 [Compound I-29, 2-chloro-N-(7-(8-ethyl-2-(((1r,4r)-4-hydroxycyclohexyl)amino)quinazolin-6-yl)pyrrolo[2,1-f][1,2,4]triazin-4-yl)benzenesulfonamide] |
| < 0.1 µM | < 1 µM | CCc1cc(-c2ccc3c(NS(=O)(=O)c4ccccc4Cl)ncnn23)cc2cnc(N[C@@H]3CNC[C@H](C)C3)nc12 [Compound I-31] |
| < 0.1 µM | 1 to 10 µM | CCc1cc(-c2csc3c(NS(=O)(=O)c4ccccc4Cl)ncnc23)cc2cnc(N[C@H]3CCCNC3)nc12 [Compound I-23, (S)-2-chloro-N-(7-(8-ethyl-2-(piperidin-3-ylamino)quinazolin-6-yl)thieno[3,2-d]pyrimidin-4-yl)benzenesulfonamide] |
| > 1 µM | – | CCc1cc(-c2ccc3c(NS(=O)(=O)c4ccc(C(F)(F)F)cc4Cl)ncnn23)cc2cnc(N[C@H]3CCCNC3)nc12 [Compound I-34, (S)-2-chloro-N-(7-(8-ethyl-2-(piperidin-3-ylamino)quinazolin-6-yl)pyrrolo[2,1-f][1,2,4]triazin-4-yl)-4-(trifluoromethyl)benzenesulfonamide] |
